Source: the supplement of paper PMC8617591

What was measured:
[1] = tested on: Mycobacterium tuberculosis Erdman (autoluminescent); assay: GRinf, maximum normalised growth rate inhibition (three-drug combination) (unitless (-1 to 1)); higher = less effect (negative = killing)
Description: (§1)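 DiaMOND equipotent three-drug combination dose responses (10 doses, 1.5- or 2-fold spacing, centred on IC90) against autoluminescent M. tuberculosis Erdman in 8 in vitro models. Read-out is OD600, or luminescence for the intracellular and dormancy models, normalised to untreated wells. Hill-fit Einf, AUC25 and GRinf are potency metrics; FIC50 and FIC90 are total Loewe fractional inhibitory concentrations as log2 (negative = synergy).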

[2] = tested on: Mycobacterium tuberculosis Erdman (autoluminescent); assay: total FIC50 (Loewe) at 50% inhibition, three-drug combination (log2); higher = more antagonistic
Description: as §1

[3] = tested on: Mycobacterium tuberculosis Erdman (autoluminescent); assay: Einf, fitted maximum growth inhibition of three-drug combination (fraction); higher = stronger maximal inhibition
Description: as §1

[4] = tested on: Mycobacterium tuberculosis Erdman (autoluminescent); assay: AUC25, normalised area under dose response up to IC25 (three-drug combination) (fraction (0-1)); higher = more potent at low dose
Description: as §1

[5] = tested on: Mycobacterium tuberculosis Erdman (autoluminescent); assay: total FIC90 (Loewe) at 90% inhibition, three-drug combination (log2); higher = more antagonistic
Description: as §1

COc1nc2ccc(Br)cc2cc1[C@@H](c1ccccc1)[C@@](O)(CCN(C)C)c1cccc2ccccc12 [bedaquiline] + NNC(=O)c1ccncc1 [isoniazid] + COc1c(N2C[C@@H]3CCCN[C@@H]3C2)c(F)cc2c(=O)c(C(=O)O)cn(C3CC3)c12 [moxifloxacin]
Details | AUC25, [4] | Einf, [3] | GRinf, [1] | total FIC50, [2] | total FIC90, [5]
in vitro model: acidic pH 5.7, time point: constant (~7 days, model-specific) | 0.098 | 0.7 | -0.325 | 0.527 | –
in vitro model: acidic pH 5.7, time point: terminal (~4-5 doublings, model-specific) | 0.0943 | 0.958 | -0.313 | 0.604 | 0.776
in vitro model: intracellular J774, time point: constant = terminal | – | 0.972 | -0.784 | – | 1.2

Details | AUC25, [4] | Einf, [3] | GRinf, [1] | total FIC50, [2] | total FIC90, [5]
in vitro model: butyrate, time point: constant (~7 days, model-specific) | 0.0762 | 0.94 | -0.0717 | 0.776 | 0.906
in vitro model: butyrate, time point: terminal (~4-5 doublings, model-specific) | 0.0478 | 0.973 | -0.0805 | 0.672 | 0.575
in vitro model: cholesterol 0.05 mM, time point: constant (~7 days, model-specific) | 0.0995 | 0.742 | -0.202 | 0.612 | –
in vitro model: cholesterol 0.05 mM, time point: terminal (~4-5 doublings, model-specific) | 0.0886 | 0.923 | -0.178 | 0.549 | -0.479
in vitro model: cholesterol-high 0.2 mM, time point: constant (~7 days, model-specific) | 0.0861 | 0.952 | -0.436 | 0.394 | 0.57
in vitro model: cholesterol-high 0.2 mM, time point: terminal (~4-5 doublings, model-specific) | 0.0461 | 0.991 | -0.601 | 0.581 | 0.234
in vitro model: dormancy (butyrate + nitrate, low O2), time point: constant (~7 days, model-specific) | 0.0686 | 0.938 | 0.161 | 0.895 | 0.336
in vitro model: dormancy (butyrate + nitrate, low O2), time point: terminal (~4-5 doublings, model-specific) | 0.0705 | 0.997 | -0.252 | 0.646 | 0.782
in vitro model: standard 7H9 glycerol, time point: constant = terminal | 0.0816 | 0.987 | -0.154 | 0.375 | 0.614
in vitro model: valerate, time point: constant (~7 days, model-specific) | 0.1 | 0.925 | -0.134 | 0.901 | –
in vitro model: valerate, time point: terminal (~4-5 doublings, model-specific) | 0.067 | 0.949 | -0.0225 | 0.672 | 1.33

COc1nc2ccc(Br)cc2cc1[C@@H](c1ccccc1)[C@@](O)(CCN(C)C)c1cccc2ccccc12 [bedaquiline] + NNC(=O)c1ccncc1 [isoniazid] + NC(=O)c1cnccn1 [pyrazinamide]
Details | AUC25, [4] | Einf, [3] | GRinf, [1] | total FIC50, [2] | total FIC90, [5]
in vitro model: acidic pH 5.7, time point: constant (~7 days, model-specific) | 0.0904 | 0.873 | -0.529 | 0.0123 | –
in vitro model: acidic pH 5.7, time point: terminal (~4-5 doublings, model-specific) | 0.0797 | 0.981 | -0.413 | 0.0722 | 0.15
in vitro model: intracellular J774, time point: constant = terminal | – | 0.987 | -0.53 | – | 0.651

Details | AUC25, [4] | Einf, [3] | GRinf, [1] | total FIC50, [2] | total FIC90, [5]
in vitro model: butyrate, time point: constant (~7 days, model-specific) | 0.0809 | 0.949 | -0.109 | 0.406 | 0.726
in vitro model: butyrate, time point: terminal (~4-5 doublings, model-specific) | 0.0598 | 0.978 | -0.0731 | 0.373 | 0.404
in vitro model: cholesterol 0.05 mM, time point: constant (~7 days, model-specific) | 0.103 | 0.726 | -0.236 | – | –
in vitro model: cholesterol 0.05 mM, time point: terminal (~4-5 doublings, model-specific) | 0.102 | 0.935 | -0.279 | 0.232 | –
in vitro model: cholesterol-high 0.2 mM, time point: constant (~7 days, model-specific) | 0.0921 | 0.995 | -0.637 | 0.548 | –
in vitro model: cholesterol-high 0.2 mM, time point: terminal (~4-5 doublings, model-specific) | 0.068 | 1 | -0.598 | 0.805 | 0.505
in vitro model: dormancy (butyrate + nitrate, low O2), time point: constant (~7 days, model-specific) | 0.0789 | 0.922 | 0.125 | -0.318 | -0.645
in vitro model: dormancy (butyrate + nitrate, low O2), time point: terminal (~4-5 doublings, model-specific) | 0.0524 | 0.992 | -0.123 | 0.063 | -0.625
in vitro model: standard 7H9 glycerol, time point: constant = terminal | 0.0575 | 0.957 | -0.0565 | 0.231 | –
in vitro model: valerate, time point: constant (~7 days, model-specific) | 0.0999 | 0.847 | 0.0396 | 0.527 | –
in vitro model: valerate, time point: terminal (~4-5 doublings, model-specific) | 0.0629 | 0.953 | -0.0326 | 0.64 | 1.01

COc1nc2ccc(Br)cc2cc1[C@@H](c1ccccc1)[C@@](O)(CCN(C)C)c1cccc2ccccc12 [bedaquiline] + NNC(=O)c1ccncc1 [isoniazid] + O=[N+]([O-])c1cn2c(n1)OC[C@@H](OCc1ccc(OC(F)(F)F)cc1)C2 [pretomanid]
Details | AUC25, [4] | Einf, [3] | GRinf, [1] | total FIC50, [2] | total FIC90, [5]
in vitro model: acidic pH 5.7, time point: constant (~7 days, model-specific) | 0.13 | 0.923 | -0.789 | 0.219 | –
in vitro model: acidic pH 5.7, time point: terminal (~4-5 doublings, model-specific) | 0.108 | 0.988 | -0.439 | 0.209 | 0.765
in vitro model: intracellular J774, time point: constant = terminal | – | 0.996 | -0.588 | – | 0.892

Details | AUC25, [4] | Einf, [3] | GRinf, [1] | total FIC50, [2] | total FIC90, [5]
in vitro model: butyrate, time point: constant (~7 days, model-specific) | 0.0753 | 0.947 | -0.112 | 1.04 | 1.16
in vitro model: butyrate, time point: terminal (~4-5 doublings, model-specific) | 0.0523 | 0.975 | -0.0872 | 0.897 | 0.889
in vitro model: cholesterol 0.05 mM, time point: constant (~7 days, model-specific) | 0.0895 | 0.722 | -0.21 | 0.775 | –
in vitro model: cholesterol 0.05 mM, time point: terminal (~4-5 doublings, model-specific) | 0.0672 | 0.924 | -0.246 | 6.17 | 0.608
in vitro model: cholesterol-high 0.2 mM, time point: constant (~7 days, model-specific) | 0.0717 | 0.887 | -0.196 | 0.37 | –
in vitro model: cholesterol-high 0.2 mM, time point: terminal (~4-5 doublings, model-specific) | 0.0327 | 0.992 | -0.535 | 0.584 | 0.0623
in vitro model: dormancy (butyrate + nitrate, low O2), time point: constant (~7 days, model-specific) | 0.0674 | 0.924 | 0.224 | -0.188 | -0.985
in vitro model: dormancy (butyrate + nitrate, low O2), time point: terminal (~4-5 doublings, model-specific) | 0.0671 | 0.994 | -0.159 | -0.769 | -0.523
in vitro model: standard 7H9 glycerol, time point: constant = terminal | 0.0757 | 0.966 | -0.103 | 0.177 | 0.0648
in vitro model: valerate, time point: constant (~7 days, model-specific) | 0.129 | 0.886 | -0.333 | 0.632 | 1.13
in vitro model: valerate, time point: terminal (~4-5 doublings, model-specific) | 0.109 | 0.953 | -0.161 | 0.661 | 1.97
